Patent publication US8546565B2, “Quinazolinamide derivatives” (Merck Patent Gesellschaft, priority 2008, dated 2013)

These molecules were tested against T1, Recombinant human HSP90a (Homo sapiens, UniProt P07900) (assay: HSP90 radioligand filter binding test ([3H]17AAG competition)). Conditions: [3H]17AAG 0.08 μM, HSP90 1.5 μg/assay, 22° C., 30 min; read-out: IC50 (HSP90 inhibition).
T1 construct: host or cells: E. coli
Source text: Test Method for the Measurement of HSP90 Inhibitors
The binding of geldanamycin or 17-allylamino-17-demethoxygeldanamycin (17AAG) to HSP90 and competitive inhibition thereof can be utilised in order to determine the inhibitory activity of the compounds according to the invention (Carreras et al. 2003, Chiosis et al. 2002).
In the specific case, a radioligand filter binding test is used. The radioligand used here is tritium-labelled 17-allylaminogeldanamycin, [3H]17AAG. This filter binding test allows a targeted search for inhibitors which interfere with the ATP binding site.
Recombinant human HSP90a (E. coli expressed, 95% purity);
[3H]17AAG (17-allylaminogeldanamycin, [allylamino-2,3-^3H. Specific activity: 1.11×10^12 Bq/mmol (Moravek, MT-1717);
HEPES filter buffer (50 mM HEPES, pH 7.0, 5 mM MgCl2, BSA 0.01%)
Multiscreen FB (1 μm) filter plate (Millipore, MAFBNOB 50).
The 96-well microtitre filter plates are firstly irrigated and coated with 0.1% of polyethylenimine.
The test is carried out under the following conditions:
Reaction temperature 22° C.
Reaction time: 30 min., shaking at 800 rpm
50 mM HEPES HCl, pH 7.0, 5 mM MgCl2, 0.01% (w/v) of BSA
At the end of the reaction, the supernatant in the filter plate is removed by suction with the aid of a vacuum manifold (Multiscreen Separation System, Millipore), and the filter is washed twice.
The filter plates are then measured in a beta counter (Microbeta, Wallac) with scintillator (Microscint 20, Packard).
“% of control” is determined from the “counts per minutes” values, and the IC-50 value of a compound is calculated therefrom.

SMILES | IC50 [nM]
CCN(CC)S(=O)(=O)c1ccccc1-c1ccc2nc(N)nc(C(=O)N3Cc4ccccc4C3)c2c1 [Compound A45, 2-[2-Amino-4-(1,3-dihydroisoindole-2-carbonyl)quinazolin-6-yl]-N,N-diethylbenzenesulfonamide] | 10 to 1000
Nc1nc(C(=O)N2Cc3ccccc3C2)c2cc(-c3ccccc3S(=O)(=O)NC3CC3)ccc2n1 [Compound A52, 2-[2-Amino-4-(1,3-dihydroisoindole-2-carbonyl)quinazolin-6-yl]-N-cyclopropylbenzenesulfonamide] | 10 to 1000
Nc1nc(C(=O)N2Cc3ccccc3C2)c2cc(-c3ccccc3S(=O)(=O)N3CCC(F)(F)C3)ccc2n1 [Compound A53, {2-Amino-6-[2-(3,3-difluoropyrrolidine-1-sulfonyl)phenyl]quinazolin-4-yl}-(1,3-dihydroisoindol-2-yl)methanone] | 10 to 1000
CCN(CCN(C)C)C(=O)c1ccccc1-c1ccc2nc(N)nc(C(=O)N3Cc4ccccc4C3)c2c1 [Compound A55] | 10 to 1000
CNC(=O)C1CCCN1S(=O)(=O)c1ccccc1-c1ccc2nc(N)nc(C(=O)N3Cc4ccccc4C3)c2c1 (centres unmarked) [Compound A58, 1-{2-[2-amino-4-(1,3-dihydroisoindole-2-carbonyl)quinazolin-6-yl]benzenesulfonyl}pyrrolidine-2-methylamide] | 10 to 1000
CN(C(C)(C)C)S(=O)(=O)c1ccccc1-c1ccc2nc(N)nc(C(=O)N3Cc4ccccc4C3)c2c1 [Compound A59, 2-[2-Amino-4-(1,3-dihydroisoindole-2-carbonyl)quinazolin-6-yl]-N-tert-butyl-N-methylbenzenesulfonamide] | 10 to 1000
Nc1nc(C(=O)N2Cc3ccccc3C2)c2cc(-c3ccccc3S(=O)(=O)N3CC(F)(F)C3)ccc2n1 [Compound A60] | 10 to 1000
Nc1nc(C(=O)N2Cc3ccccc3C2)c2cc(-c3ccccc3S(=O)(=O)N3CCCC3C(=O)NCCO)ccc2n1 (centres unmarked) [Compound A61, N-(2-hydroxyethyl)-1-{2-[2-amino-4-(1,3-dihydroisoindole-2-carbonyl)quinazolin-6-yl]benzenesulfonyl}pyrrolidine-2-carboxamide] | 10 to 1000
CC1CCC(C)N1S(=O)(=O)c1ccccc1-c1ccc2nc(N)nc(C(=O)N3Cc4ccccc4C3)c2c1 (centres unmarked) [Compound A64, {2-amino-6-[2-(2,5-dimethylpyrrolidine-1-sulfonyl)phenyl]-quinazolin-4-yl}-(1,3-dihydroisoindol-2-yl)methanone] | 10 to 1000
CN(C1CC1)S(=O)(=O)c1ccccc1-c1ccc2nc(N)nc(C(=O)N3Cc4ccccc4C3)c2c1 [Compound A65, 2-[2-amino-4-(1,3-dihydroisoindole-2-carbonyl)quinazolin-6-yl]-N-cyclopropyl-N-methylbenzenesulfonamide] | 10 to 1000
CN(C1CNC1)S(=O)(=O)c1ccccc1-c1ccc2nc(N)nc(C(=O)N3Cc4ccccc4C3)c2c1 [Compound A68] | 10 to 1000
CCN(CC)C(=O)c1cc(F)c(F)cc1-c1ccc2nc(N)nc(C(=O)N3Cc4ccccc4C3)c2c1 [Compound A69, 2-[2-Amino-4-(1,3-dihydroisoindole-2-carbonyl)quinazolin-6-yl]-N,N-diethyl-4,5-difluorobenzamide] | 10 to 1000
CCN(CC)C(=O)c1ccc(F)cc1-c1ccc2nc(N)nc(C(=O)N3Cc4ccccc4C3)c2c1 [Compound A70] | 10 to 1000
CCN(CC)C(=O)c1cc(F)ccc1-c1ccc2nc(N)nc(C(=O)N3Cc4ccccc4C3)c2c1 [Compound A71, 2-[2-Amino-4-(1,3-dihydroisoindole-2-carbonyl)quinazolin-6-yl]-N,N-diethyl-5-fluorobenzamide] | 10 to 1000
CCNC(=O)c1cc(F)c(F)cc1-c1ccc2nc(N)nc(C(=O)N3Cc4ccccc4C3)c2c1 [Compound A74, 2-[2-Amino-4-(1,3-dihydroisoindole-2-carbonyl)quinazolin-6-yl]-N-ethyl-4,5-difluorobenzamide] | 10 to 1000
CCN(CCO)C(=O)c1cc(F)c(F)cc1-c1ccc2nc(N)nc(C(=O)N3Cc4ccccc4C3)c2c1 [Compound A75, 2-[2-Amino-4-(1,3-dihydroisoindole-2-carbonyl)quinazolin-6-yl]-N-ethyl-4,5-difluoro-N-(2-hydroxyethyl)benzamide] | 10 to 1000

Second part, the molecule after the results:

IC50 [nM] | SMILES
10 to 1000 | CCNC(=O)c1ccccc1-c1ccc2nc(N)nc(C(=O)N3Cc4ccccc4C3)c2c1 [Compound A41, 2-[2-Amino-4-(1,3-dihydroisoindole-2-carbonyl)quinazolin-6-yl]-N-ethylbenzamide]
10 to 1000 | CC1CCCN1C(=O)c1ccccc1-c1ccc2nc(N)nc(C(=O)N3Cc4ccccc4C3)c2c1 (centres unmarked) [Compound A42, {2-Amino-6-[2-(2-methylpyrrolidine-1-carbonyl)phenyl]quinazolin-4-yl}-(1,3-dihydroisoindol-2-yl)methanone]
10 to 1000 | Nc1nc(C(=O)N2Cc3ccccc3C2)c2cc(-c3ccccc3C(=O)N3CCC(N)C3)ccc2n1 (centres unmarked) [Compound A43, {2-amino-6-[2-(3-aminopyrrolidine-1-carbonyl)phenyl]quinazolin-4-yl}-(1,3-dihydroisoindol-2-yl)methanone]
10 to 1000 | Nc1nc(C(=O)N2Cc3ccccc3C2)c2cc(-c3ccccc3C(=O)N3CCCC3C(=O)O)ccc2n1 (centres unmarked) [Compound A44, 1-{2-[2-Amino-4-(1,3-dihydroisoindole-2-carbonyl)quinazolin-6-yl]-benzoyl}pyrrolidine-2-carboxylic acid]
10 to 1000 | Nc1nc(C(=O)N2Cc3ccccc3C2)c2cc(-c3ccccc3C(=O)NC3CCC3)ccc2n1 [Compound A46, 2-[2-Amino-4-(1,3-dihydroisoindole-2-carbonyl)quinazolin-6-yl]-N-cyclobutylbenzamide]
10 to 1000 | CC(C)(C)NC(=O)c1ccccc1-c1ccc2nc(N)nc(C(=O)N3Cc4ccccc4C3)c2c1 [Compound A47, 2-[2-Amino-4-(1,3-dihydroisoindole-2-carbonyl)quinazolin-6-yl]-N-tert-butylbenzamide]
10 to 1000 | Nc1nc(C(=O)N2Cc3ccccc3C2)c2cc(-c3ccccc3C(=O)NC3CC3)ccc2n1 [Compound A48, 2-[2-Amino-4-(1,3-dihydroisoindole-2-carbonyl)quinazolin-6-yl]-N-cyclopropylbenzamide]
10 to 1000 | Nc1nc(C(=O)N2Cc3ccccc3C2)c2cc(-c3ccccc3C(=O)N3CCC(F)(F)C3)ccc2n1 [Compound A49, {2-Amino-6-[2-(3,3-difluoropyrrolidine-1-carbonyl)phenyl]quinazolin-4-yl}-(1,3-dihydroisoindol-2-yl)methanone]
1000 to 10000 | CNC(=O)C1CCCN1C(=O)c1ccccc1-c1ccc2nc(N)nc(C(=O)N3Cc4ccccc4C3)c2c1 (centres unmarked) [Compound A50, 1-{2-[2-amino-4-(1,3-dihydroisoindole-2-carbonyl)quinazolin-6-yl]benzoyl}pyrrolidine-2-methylamide]
10 to 1000 | Nc1nc(C(=O)N2Cc3ccccc3C2)c2cc(-c3ccccc3S(=O)(=O)NC3CCC3)ccc2n1 [Compound A51, 2-[2-Amino-4-(1,3-dihydroisoindole-2-carbonyl)quinazolin-6-yl]-N-cyclobutylbenzenesulfonamide]
10 to 1000 | Nc1nc(C(=O)N2Cc3ccccc3C2)c2cc(-c3ccccc3C(=O)N3CCC3)ccc2n1 [Compound A54]
10 to 1000 | CN(C(=O)c1ccccc1-c1ccc2nc(N)nc(C(=O)N3Cc4ccccc4C3)c2c1)C(C)(C)C [Compound A56, 2-[2-Amino-4-(1,3-dihydroisoindole-2-carbonyl)quinazolin-6-yl]-N-tert-butyl-N-methylbenzamide]
10 to 1000 | CC1CCC(C)N1C(=O)c1ccccc1-c1ccc2nc(N)nc(C(=O)N3Cc4ccccc4C3)c2c1 (centres unmarked) [Compound A57]
10 to 1000 | Nc1nc(C(=O)N2Cc3ccccc3C2)c2cc(-c3ccccc3C(=O)N3CC[C@H](F)C3)ccc2n1 [Compound A62]
10 to 1000 | C[C@@H]1CCCN1C(=O)c1ccccc1-c1ccc2nc(N)nc(C(=O)N3Cc4ccccc4C3)c2c1 [Compound A63]
10 to 1000 | C[C@@H]1CCCN1S(=O)(=O)c1ccccc1-c1ccc2nc(N)nc(C(=O)N3Cc4ccccc4C3)c2c1 [Compound A66, {2-Amino-6-[2-((R)-2-methylpyrrolidine-1-sulfonyl)phenyl]quinazolin-4-yl}-(1,3-dihydroisoindol-2-yl)methanone]
10 to 1000 | Nc1nc(C(=O)N2Cc3ccccc3C2)c2cc(-c3ccccc3S(=O)(=O)N3CC[C@H](F)C3)ccc2n1 [Compound A67, {2-Amino-6-[2-((S)-3-fluoropyrrolidine-1-sulfonyl)phenyl]quinazolin-4-yl}-(1,3-dihydroisoindol-2-yl)methanone]
10 to 1000 | C[C@H]1CCCN1C(=O)c1ccccc1-c1ccc2nc(N)nc(C(=O)N3Cc4ccccc4C3)c2c1 [Compound A72, {2-Amino-6-[2-((S)-2-methylpyrrolidine-1-carbonyl)phenyl]quinazolin-4-yl}-(1,3-dihydroisoindol-2-yl)methanone]
10 to 1000 | Nc1nc(C(=O)N2Cc3ccccc3C2)c2cc(-c3ccccc3C(=O)N(CCO)CCO)ccc2n1 [Compound A73]
